Reference: patent publication US20260102451A1, “RUMINANT METHANE PRODUCTION INHIBITOR” (SDS BIOTECH K.K., priority 2022, published 2026)

Legend:
Type in all cases: cell-based, Holstein milking cows
rumen fluid culture [1] = assay: Methane production measurement system using rumen culture (Example 1); settings: for methane amount (mean ± SD): 39° C., 17 hours
Experimental: Cashew nut shell liquid (CNSL) cold-pressed and extracted from cashew nut shells was obtained. For culture inoculum, rumen fluids (filtrates through quadruple gauzes) collected orally from Holstein milking cows 90 days or longer after calving were used. 4 mL of the rumen fluid and 6 mL of artificial saliva (McDougal's artificial saliva) were added, and the mixture was used for culturing. […] Similarly, DL-malic acid and fumaric acid were dissolved in ethanol and added such that they had desired concentrations in the solution. To equalize the effect of ethanol, only ethanol was added to a no-addition (control) area. Thereafter, the resulting products were left for several hours to vaporize ethanol, to which 50 mg of corn starch, 75 mg of concentrate feed powder, and 75 mg of timothy hay powder were added as culture substrates. […] To these test tubes, a total of 10 ml of diluted rumen fluid and artificial saliva in the above mixture ratio was added, and the tubes were incubated anaerobically in an incubator (39° C., 17 hours) with butyl rubber caps and plastic screw caps provided while nitrogen gas was blown into the head space. Each culturing was performed in triplicate. The concentrations of methane and acetic acid in volatile fatty acids were both analyzed by FID gas chromatography.

rumen fluid culture [2] = assay: Methane production measurement system using rumen culture (Example 3); settings: for methane amount (mean ± SD): 39° C., 17 hours; for methane amount % reduction vs cont: ^ = increase
Experimental: Cashew nut shell liquid (CNSL) cold-pressed and extracted from cashew nut shells was obtained. For culture inoculum, rumen fluids (filtrates through quadruple gauzes) collected orally from Holstein milking cows 90 days or longer after calving were used. 4 mL of the rumen fluid and 6 mL of artificial saliva (McDougal's artificial saliva) were added and the mixture was used for culturing. […] CNSL was dissolved in ethanol and added to a Hungate tube such that it had any concentration in the solution. […] To equalize the effect of ethanol, only ethanol was added to a no-addition (control) area. […] To these test tubes, a total of 10 mL of diluted rumen fluid and artificial saliva in the above mixture ratio was added, and the tubes were incubated anaerobically in an incubator (39° C., 17 hours) with butyl rubber caps and plastic screw caps provided while nitrogen gas was blown into the head space. Each culturing was performed in triplicate. The concentrations of methane and acetic acid in volatile fatty acids were both analyzed by FID gas chromatography.

rumen fluid culture [3] = assay: Methane production measurement system using rumen culture (Example 2); settings: for methane amount (mean ± SD): 39° C., 17 hours
Experimental: Cashew nut shell liquid (CNSL) cold-pressed and extracted from cashew nut shells was obtained. For culture inoculum, rumen fluids (filtrates through quadruple gauzes) collected orally from Holstein milking cows 90 days or longer after calving were used. 4 mL of the rumen fluid and 6 mL of artificial saliva (McDougal's artificial saliva) were added and the mixture was used for culturing. […] CNSL was dissolved in ethanol and added to a Hungate tube such that it had any concentration in the solution. […] To equalize the effect of ethanol, only ethanol was added to a no-addition (control) area. Thereafter, the resulting products were left for several hours to vaporize ethanol, to which 50 mg of corn starch, 75 mg of concentrate feed powder, and 75 mg of timothy hay powder were added as culture substrates. To these test tubes, a total of 10 ml of diluted rumen fluid and artificial saliva in the above mixture ratio was added, and the tubes were incubated anaerobically in an incubator (39° C., 17 hours) with butyl rubber caps and plastic screw caps provided while nitrogen gas was blown into the head space. Each culturing was performed in triplicate. The concentrations of methane and acetic acid in volatile fatty acids were both analyzed by FID gas chromatography.

[4] = 1000 mg/L alone, ▴ = reduction, ^ = increase

Structure (SMILES)	acetate amount % vs cont (rumen fluid culture [1]; 500 mg/L alone) [%]	acetate amount (mean ± SD) (rumen fluid culture [1]; 500 mg/L alone) [g/L]	methane amount (mean ± SD) (rumen fluid culture [1]; 500 mg/L alone) [mL/tube]	acetate amount % vs cont (rumen fluid culture [2]; 500 mg/L alone) [%]	acetate amount (mean ± SD) (rumen fluid culture [2]; 500 mg/L alone) [g/L]	methane amount (mean ± SD) (rumen fluid culture [2]; 500 mg/L alone) [mL/tube]	acetate amount % vs cont (rumen fluid culture [2]; 1000 mg/L alone) [%]	acetate amount (mean ± SD) (rumen fluid culture [2]; 1000 mg/L alone) [g/L]	methane amount (mean ± SD) (rumen fluid culture [2]; 1000 mg/L alone) [mL/tube]	acetate amount % vs cont (rumen fluid culture [2]; 2000 mg/L alone) [%]	acetate amount (mean ± SD) (rumen fluid culture [2]; 2000 mg/L alone) [g/L]	methane amount (mean ± SD) (rumen fluid culture [2]; 2000 mg/L alone) [mL/tube]	methane amount % reduction vs cont (rumen fluid culture [2]; 2000 mg/L alone)	acetate amount % vs cont (rumen fluid culture [3]; 500 mg/L alone) [%]	acetate amount (mean ± SD) (rumen fluid culture [3]; 500 mg/L alone) [g/L]	methane amount (mean ± SD) (rumen fluid culture [3]; 500 mg/L alone) [mL/tube]	acetate amount % vs cont (rumen fluid culture [3]; 1000 mg/L alone) [%]	acetate amount (mean ± SD) (rumen fluid culture [3]; 1000 mg/L alone) [g/L]	methane amount (mean ± SD) (rumen fluid culture [3]; 1000 mg/L alone) [mL/tube]	other results
O=C(O)CC(O)C(=O)O (racemic) [DL-malic acid]	123	4.18 ± 0.11	6.22 ± 0.93	114	4.18 ± 0.07	6.13 ± 0.92	102	3.76 ± 0.27	6.13 ± 0.00	105	3.85 ± 0.38	5.95 ± 0.70	▴3%	–	–	–	–	–	–	acetate amount % vs cont (rumen fluid culture [1]; 1000 mg/L alone): 111%; acetate amount (mean ± SD) (rumen fluid culture [1]; 1000 mg/L alone): 3.76 ± 0.11 g/L; methane amount (mean ± SD) (rumen fluid culture [1]; 1000 mg/L alone): 5.47 ± 0.01 mL/tube; methane amount % reduction vs cont (rumen fluid culture [1]; [4]): ▴0%; improvement in the methane reduction rate (rumen fluid culture [1]; CNSL and garlic powder in combination, 500 to 1,000 mg/L DL-malic acid alone, 100 to 200 mg/L garlic powder): did not show significant improvement
O=C(O)CC(O)(CC(=O)O)C(=O)O [citric acid]	–	–	–	99	3.64 ± 0.70	6.53 ± 0.43	102	3.76 ± 1.10	6.41 ± 1.49	128	4.71 ± 0.15	5.45 ± 2.09	▴11%	115	4.25 ± 0.16	5.12 ± 0.67	119	4.42 ± 0.14	3.77 ± 1.64	methane amount % reduction vs cont (rumen fluid culture [3]; [4]): ▴21%
O=C(O)/C=C/C(=O)O [fumaric acid]	114	3.86 ± 0.12	5.94 ± 0.01	–	–	–	–	–	–	–	–	–	–	–	–	–	–	–	–	–
CC(=O)C(=O)O [pyruvic acid]	–	–	–	–	–	–	–	–	–	–	–	–	–	109	4.04 ± 0.31	5.58 ± 1.26	118	4.36 ± 0.02	5.39 ± 0.04	–
O=C(O)CCC(=O)O [succinic acid]	–	–	–	–	–	–	–	–	–	–	–	–	–	115	4.26 ± 0.42	5.28 ± 1.76	106	3.91 ± 0.58	6.24 ± 0.83	–
